The values below come from patent US20260364078A1, “PURINE NUCLEOSIDE PHOSPHORYLASE INHIBITORS FOR THE TREATMENT OF METABOLIC SYNDROME AND ASSOCIATED CONDITIONS” (METASHAPE PHARMA AG, priority 2022, published 2026).

Data set [1] is described as follows: Drying stability (vacuum, RT/50/70 °C). It counts as physicochemical.
Data set [2] is described as follows: Approximate solubility of starting material at RT. As to conditions: RT (~27 °C). It counts as physicochemical. The method, then:
The solubility of starting material (E0007-A01-02) was estimated at RT (~27 °C).
Specifically, approximate 2 mg of solid was added into an HPLC glass vial. The solvents below were then added stepwise ([…]) into the vials until the solids were dissolved or a total volume of 1.0 mL was reached.
The solubility data were used to guide the solvent selection in polymorph screening. Approximate solubility of starting material (E0007-A01-02) at RT: […]

Data set [3] in a line: Hygroscopicity by DVS at 25 °C. It counts as physicochemical. The method, then: To understand the hygroscopicity of glutarate type A, DVS was employed to measure the mass change as a function of relative humidity at 25 °C (FIG. 14).
Dynamic vapour sorption was performed with ADVENTURE series DVS and Intrinsic-1 DVS at 25 °C under nitrogen blow. Approximately 30 milligrams of material were used. Anhydrate was analyzed using methods below: 0% RH to 95% RH to 0% RH at 10% RH (5% RH from 90% RH to 95% RH to 90% RH). After equilibrium at ambient conditions (50% RH), the hydrate sample was analyzed using method below: 1. Ambient relative humidity to 95% RH at 10% RH (5% from 90% RH to 95% RH). 2. 95% RH to 0% RH at 10% RH (5% from 95% RH to 90% RH). 3. 0% RH to 95% RH at 10% RH (5% RH from 90% RH to 95% RH).
The moisture sorption profile was generated at 25 °C using a DVS moisture balance flow system (Model Advantage 1.0) with the following conditions: sample size approximately 10 mg, drying 25 °C for 60 minutes, adsorption range 0% to 95% RH, desorption range 95% to 0% RH, and step interval 5%. The equilibrium criterion was <0.01% weight change in 5 minutes for a maximum of 120 minutes.

The nature of data set [4]: Physicochemical stability (2-week, open conditions). The following applies: for remaining at 336 h: 2-week; for remaining at 336 h / remaining at 240 h: read-out: Purity; for remaining at 240 h: 10-day. The text has this:
SHIMADZU LC-20AD was employed to detect the chemical purity HPLC method for purity test

Data set [5] is described as follows: Kinetic solubility (37 °C/24 h). It counts as physicochemical.
Data set [6] in a line: Physicochemical stability (2-week, open conditions).
Data set [7] can be described thus: Polymorph form conversion / solid-state stability (XRPD, VT-XRPD). It counts as physicochemical. On the procedure:
To confirm stability and suitability of Ulodesine hemi-glutarate Type A, a polymorph screening was conducted to search for other potential crystal forms and identify the most suitable form to confirm the previous findings.
Using glutarate Type A as starting material, a polymorph screening was conducted under 100 conditions through methods of anti-solvent addition, solid vapor diffusion, liquid vapor diffusion, slow evaporation, polymer-induced crystallization, temperature cycling, slurry at room temperature (RT)/50 °C and slow cooling.
X-ray powder diffraction data at variable temperature was collected at on a Malvern Panalytical Empyrean diffractometer. Flat a few milligrams of sample on a sample holder and compact it by a glass slide with protection of a piece of weighting paper. An X-ray generator of 1800 W was employed at 45 kV and 40 mA and was equipped with an X-ray tube of Cu (Kα), with the Kα2/Kα1 intensity ratio of 0.50 (1.54439 Å/1.5406 Å). Data were collected from 3° to […] (2θ) at a step size of 0.026° (2θ) with time per step of 49.7 s.
Glutarate Type B (E0007-A01-06) was only observed by heating glutarate Type A to 130 °C using X-ray powder diffractometer at variable temperature mode (VT-XRPD).
Based on the characterization results, glutarate Type C was speculated as a channel hydrate (the water molecules of a channel hydrate lie next to other water molecules of adjoining unit cell, forming channels through the crystals).
Type C was re-prepared at 100 mg in triplicate via temperature cycling slurry in anisole/MeOH (1:2, v/v).

Data set [8] has as its system DIO mouse model. Description: Example 2: low and intermittent dosing in DIO mouse model. It counts as in vivo, C57/BL6J mice. The following applies: 2 mg/kg p.o., 3 days a week, vs control. The text has this:
The aim of this study is to determine the effect of a low and intermittent dosing regime of ulodesine hemi glutarate on the following parameters: weight gain, food intake, fasting blood glucose concentration, serum insulin, serum cholesterol, plasma liver enzymes aspartate aminotransferase (AST) and alanine transaminase (ALT), inguinal white adipose tissue (iWAT), BAT; inosine in plasma and NAD+ in whole blood, and expression of lipogenesis (fatty acid synthesis) markers in iWAT and thermogenic markers in BAT. The study will assess ulodesine hemi glutarate efficacy on the listed parameters in the DIO mouse model of obesity and metabolic dysfunction.
Method: C57/BL6J mice were fed obesogenic diet D12492 (60 kcal % fat) from age 6 weeks. Nineteen week old mice (approximately 50 g) were either treated with vehicle (control) or ulodesine hemi glutarate at 2 mg/kg for 3 days a week (days 1, 2 and 3), given orally, over a 28 day period. On day minus 2 and on day 28, animals were fasted for 6 hr (only food withdrawn) and blood was collected for both blood glucose and cholesterol. On day 28 plasma liver enzymes (AST and ALT) and insulin were determined and additional plasma and whole blood was frozen and used for inosine and NAD+ measurement. BAT and iWAT was collected at the end of the study, weighed and quantitative PCR was performed for the lipogenesis markers Stearoyl CoA desaturase 1 (SCD-1) and fatty acid synthetase (FAS) and the thermogenesis marker uncoupling protein 1 (UCP-1). Inosine and NAD+ levels in stored plasma and whole blood respectively were determined by LC/MS/MS.

The test system of data set [9] is DIO mouse model. Description: Example 3: liver parameters in DIO mouse model. The following applies: 2 mg/kg p.o., 3 days a week, 8 weeks. It counts as in vivo, C57/BL6J mice. An excerpt: The aim of this study is to determine the effect of low and intermittent dosing of ulodesine hemi glutarate on the liver parameters: liver weight, total cholesterol, triglycerides, AST and ALT. The study assessed ulodesine hemi glutarate efficacy on the listed parameters in the DIO mouse model of obesity and metabolic dysfunction.
Method: C57/BL6J mice were fed obesogenic diet D12492 (60 kcal % fat) from age 6 weeks. Eighteen weeks old mice (approximately 40 g) were either treated with vehicle (control) or ulodesine hemi glutarate at 2 mg/kg for 3 days a week (days 1, 2 and 3) given orally for 8 weeks. At the end of eight weeks, the liver was removed and the following parameters were assessed: total cholesterol, triglycerides, AST and ALT.

≈ marks a conversion by molar mass, not a printed value. Where two headings read alike, the source gives them in different places.

As usually defined, the solubility is the concentration that dissolves in the medium under given conditions. As usually defined, the solubility (kinetic) is the concentration staying in solution when a stock, usually in DMSO, is diluted into the medium. `O=c1[nH]cnc2c(CN3C[C@H](CO)[C@@H](O)C3)c[nH]c12` [Glutarate Type A]: the “change in crystallinity on vacuum drying” value in data set [1] (70 °C) was “slight decrease”; in data set [1] (overnight, 50 °C), “no change in crystallinity”; in data set [1] (overnight, RT) it was “no change in crystallinity”. The solubility was > 36000 µg/mL in data set [2] (H2O); < 2000 µg/mL in [2] (organic solvent or mixture, 1,4-Dioxane); < 1900 µg/mL in [2] (organic solvent or mixture, 2-MeTHF); < 1900 µg/mL in data set [2] (organic solvent or mixture, ACN); < 1900 µg/mL in data set [2] (organic solvent or mixture, Acetone/H2O (9:1)); < 2100 µg/mL in data set [2] (organic solvent or mixture, Acetone). Moreover, the solubility in data set [2] (organic solvent or mixture, CPME) was < 1900 µg/mL; in data set [2] (organic solvent or mixture, DCM/MeOH (1:1)) it was < 1900 µg/mL; in [2] (organic solvent or mixture, DCM), < 1800 µg/mL; in [2] (organic solvent or mixture, DMAc) it was 2000 to 6500 µg/mL (≈ 7.57 to 24.6 mM); in data set [2] (organic solvent or mixture, DMF), 2300 to 7600 µg/mL (≈ 8.7 to 28.8 mM); in data set [2] (organic solvent or mixture, DMSO) it was > 39600 µg/mL. The solubility is < 2100 µg/mL in [2] (organic solvent or mixture, EtOAc); 22600 to 45200 µg/mL (≈ 85.5 to 171 mM) in data set [2] (organic solvent or mixture, EtOH/H2O (2:1)); 2100 to 6900 µg/mL (≈ 7.95 to 26.1 mM) in data set [2] (organic solvent or mixture, EtOH/H2O (4:1)); < 2000 µg/mL in data set [2] (organic solvent or mixture, EtOH/H2O (9:1)); < 2100 µg/mL in data set [2] (organic solvent or mixture, EtOH); < 1800 µg/mL in data set [2] (organic solvent or mixture, IPA). Also, the solubility in [2] (organic solvent or mixture, IPAc) is < 2000 µg/mL; in data set [2] (organic solvent or mixture, MEK), < 1900 µg/mL; in data set [2] (organic solvent or mixture, MIBK) it was < 1800 µg/mL; in data set [2] (organic solvent or mixture, MTBE) it was < 2000 µg/mL; in data set [2] (organic solvent or mixture, MeOH) it was 1900 to 6500 µg/mL (≈ 7.19 to 24.6 mM); in data set [2] (organic solvent or mixture, NMP), 1900 to 6300 µg/mL (≈ 7.19 to 23.8 mM). In addition, the solubility in [2] (organic solvent or mixture, THF/H2O (9:1)) is < 2000 µg/mL; in data set [2] (organic solvent or mixture, THF), < 2000 µg/mL; in [2] (organic solvent or mixture, Toluene), < 1900 µg/mL; in data set [2] (organic solvent or mixture, n-Heptane), < 2000 µg/mL. Further, the water uptake is recorded as 1.1% in [3] (25 °C/80% RH) and 10.4% in data set [3] (25 °C/95% RH). For the same compound, the hygroscopicity entry in data set [3] (25 °C/80% RH, in words) is reported as “slightly hygroscopic”. Further, in data set [3] (XRPD after DVS), the “form change after DVS” value is given as “no form change”. In addition, the remaining at 336 h was found to be 97.8% in data set [4] (25 °C/60% RH), 97.7% in [4] (40 °C/75% RH) and 97.3% in data set [4] (60 °C). For the same compound, the remaining at 240 h in data set [4] (25 °C/60% RH) was determined as 97.7%; in [4] (40 °C/75% RH), 97.8%; in data set [4] (60 °C) it was 97.6%. This compound also came in with an Initial purity in data set [4] (initial) of 97.9 area %. Also, the kinetic solubility at 24 h in data set [5] (FaSSIF), in [5] (FeSSIF), in data set [5] (SGF) and in [5] (water) was > 16800 µg/mL throughout. In addition, the Form change entry was “No” in data set [6] (2-week, 25 °C/60% RH); “No” in data set [6] (2-week, 40 °C/75% RH); “No” in [6] (2-week, 60 °C); “No” in data set [6] (10-day, 25 °C/60% RH); “No” in [6] (10-day, 40 °C/75% RH); “No” in data set [6] (10-day, 60 °C). The “solid-state properties and stability” value in [7] (polymorph screening overall) is “good solid-state properties and stability”.
For `O=c1[nH]cnc2c(CN3C[C@H](CO)[C@@H](O)C3)c[nH]c12` [Glutarate Type B], the “form conversion on cooling back to RT” value in data set [7] (after heating to 130 °C, cooled to RT) is listed as “quickly converted to glutarate Type A”. Moreover, the solid form stability entry in data set [7] (ambient condition) is given as “meta-stable form at ambient condition”.
On to `O=c1[nH]cnc2c(CN3C[C@H](CO)[C@@H](O)C3)c[nH]c12` [Glutarate Type C], for which, in [7] (110 °C), the “form change after heating to 110 °C” value was “no form change”. Also, the “form change after drying” value in data set [7] (RT overnight) was “no form change”. In addition, the “Form change after heating” value in data set [7] (after heating) was “No”. Further, the “stability compared with glutarate Type A” value in data set [7] (drying under ambient condition) is “lower stability compared with glutarate Type A”. Moreover, the “form conversion after drying under ambient condition” value is given as “(partially) converted to glutarate Type A” in data set [7] (wet cakes from screening, ~25 °C/30% RT) and “converted to glutarate Type A” in data set [7] (wet cakes, ~6 h (~20 °C/32% RH)).
In the case of `O=c1[nH]cnc2c(CN3C[C@H](CO)[C@@H](O)C3)c[nH]c12` [ulodesine], in the data set on DIO mouse model [8] (28 days), the blood glucose entry is “decreases”, the iWAT/Body weight % entry is on record as “significant decrease” and the plasma cholesterol entry was “decreases”. In the data set with DIO mouse model [8] (day 28), the insulin levels entry is reported as “decreases”, the “plasma ALT” value is recorded as “decreases” and the “plasma AST” value was “decreases”. In the data set with DIO mouse model [9], the “liver ALT” value was “decreases in triglycerides and ALT with treatment they did not achieve statistical significance”; the “liver AST” value is reported as “significant decrease”; the “liver total cholesterol (TC)” value is “significant decrease”; the liver triglycerides entry was “decreases in triglycerides and ALT with treatment they did not achieve statistical significance”.
